The test system of data set [1] is canine heartworm microfilariae. Briefly: Effects on canine heartworm (motility of microfilariae). Also on record: key: At least two-thirds of the heartworms died; B: Substantially all the heartworms were affected in some way, or at least one-third died; C: No influence, or less than one-third of the heartworms died. The settings on record: 3.13 ppm in RPMI1640 liquid culture medium, 37° C., observed for 48 hours. The procedure: The activities of the compounds were evaluated based on changes in the motility of microfilariae in canine heartworm. The respective compounds were dissolved in a RPMI1640 liquid culture medium to a concentration of 3.13 ppm, following which about 20 canine heartworm microfilariae were placed in each culture fluid and cultured at 37° C.
Criteria A: At least two-thirds of the heartworms died • B: Substantially all the heartworms were affected in some way, or at least one-third died • C: No influence, or less than one-third of the heartworms died

The test system of a further data set is greenhouse whitefly. Nature of the data set: whole plant or invertebrate. Format: in vivo. The note with it: 20 ppm foliar application, eggs on cucumber leaf discs, 14 days after spraying. How it is done:
Adult greenhouse whiteflies were released onto cucumber plants grown in pots, and allowed to laid eggs overnight. One day after the start of oviposition, the adults were removed, and the plants and eggs were held in an incubation chamber at 25° C. (16-hour period of light, 8-hour dark period). Three days after the end of oviposition, leaf discs 2.0 cm in diameter were cut from the cucumber plants and, after confirming oviposition thereon, the leaf discs were sprayed with solutions of the inventive compounds at a predetermined concentration prepared to 50% acetone/water (containing 0.05% Tween 20). After spraying, the treated leaf discs were held in an incubation chamber at 25° C. (16-hour period of light, 8-hour dark period). Fourteen days after spraying, the numbers of live and dead insects were counted, and the mortality was calculated from the following formula. This was a two-replication test. Mortality (%)=[(number of oviposited eggs−number of live insects)/number of oviposited eggs]×100

Data set [2] deals with small brown planthopper. Briefly: whole plant or invertebrate. In kind it is in vivo. The settings on record: Laodelphax striatellus, foliar. How it is done: (§1) Rice seedlings grown in pots were subjected to the foliar application of solutions of the inventive compounds at a predetermined concentration prepared to 50% acetone/water (containing 0.05% Tween 20). The treated seedlings were air dried, following which second-instar larvae were released onto the seedlings. The seedlings and larvae were then held in an incubation chamber at 25° C. (16-hour period of light, 8-hour dark period). Three days after released, the numbers of live and dead insects were counted, and the mortality was calculated from the following formula. This was a two-replication test. Mortality (%)=[number of dead insects/(number of live insects+number of dead insects)]×100

For data set [3], the system named is small brown planthopper. Nature of the data set: whole plant or invertebrate. In kind it is in vivo. The note with it: Laodelphax striatellus, in Triticum aestivum, 96 h; for mortality at 0.5 mg/seedling / mortality at 2 mg/seedling / mortality at 20 mg/seedling: read-out: Insecticidal effects (mortality), small brown planthopper second-instar larvae. How it is done: Wheat seedling roots 48 hours after sowing were treated with solutions of the inventive compounds at a predetermined concentration prepared to 10% acetone/water. After allowing the roots to absorb the chemical for 72 hours, ten second-instar small brown planthopper larvae were released onto each seedling. The treated seedlings and larvae were then held in an incubation chamber at 25° C. (16-hour period of light, 8-hour dark period). Four days after released, the numbers of live and dead insects were counted, and the mortality was calculated from the following formula. The test was carried out as two replications. Mortality (%)=[number of dead insects/(number of live insects+number of dead insects)]×100

Another data set has as its system common cutworm. Nature of the data set: whole plant or invertebrate. In kind it is in vivo. The note with it: for Insecticidal effects (mortality), common cutworm third-instar larvae: foliar application. How it is done: as §1, with “Leaf discs 5.0 cm in diameter were cut from cabbage plants” for “Rice seedlings”, “pots, and these” for “pots”, “sprayed with” for “subjected to the foliar application of”, “leaf discs” for “seedlings”, “third-instar” for “second-instar”, “discs.” for “seedlings.”

In data set [4] the test system is small brown planthopper. Nature of the data set: whole plant or invertebrate. In kind it is in vivo. The settings on record: Laodelphax striatellus, 72 h; for pest or weed control at 0.005 mg/pot / pest or weed control at 0.01 mg/pot / pest or weed control at 0.05 mg/pot: rice soil drenching, read-out: Small brown planthopper (rice soil drenching), effect; for pest or weed control at 0.005 mg/pot: 0.005 mg/pot (Table 13); for pest or weed control at 0.01 mg/pot: 0.01 mg/pot (Table 13); for pest or weed control at 0.05 mg/pot: 0.05 mg/pot (Table 13); for mortality at 0.05 mg/seedling / mortality at 0.005 mg/pot / mortality at 0.01 mg/pot / mortality at 0.05 mg/pot: soil; for mortality at 0.005 mg/pot / mortality at 0.01 mg/pot / mortality at 0.05 mg/pot: read-out: Insecticidal effects (mortality), small brown planthopper second-instar larvae. The procedure: (§2) Rice seedlings grown in pots were subjected to soil drenching treatment with solutions of the inventive compounds at a predetermined concentration prepared to 10% acetone/water. Three days following treatment, ten second-instar small brown planthopper larvae were released onto each seedling. The treated seedlings and larvae were then held in an incubation chamber at 25° C. (16-hour period of light, 8-hour dark period). Three days after released, the numbers of live and dead insects were counted, and the mortality was calculated from the following formula. The test was carried out as two replications. Mortality (%)=[number of dead insects/(number of live insects+number of dead insects)]×100

A further data set concerns diamondback moth. Briefly: whole plant or invertebrate. The settings on record: Plutella xylostella, foliar. In kind it is in vivo. The procedure: as §1, with “Leaf discs 5.0 cm in diameter were cut from cabbage plants” for “Rice seedlings”, “pots, and these” for “pots”, “sprayed with” for “subjected to the foliar application of”, “leaf discs” for “seedlings”, “discs.” for “seedlings.”

For another data set, the system named is western flower thrips. Briefly: whole plant or invertebrate. The settings on record: Frankliniella occidentalis, foliar. In kind it is in vivo. How it is done:
as §1, with “Leaf discs 2.8 cm in diameter were cut from bean plants” for “Rice seedlings”, “pots, and these” for “pots”, “sprayed with” for “subjected to the foliar application of”, “leaf discs” for “seedlings”, “first-instar” for “second-instar”, “discs.” for “seedlings.”

A further data set concerns rice leaf bug. Briefly: whole plant or invertebrate. In kind it is in vivo. The note with it: foliar, 72 h. The procedure: The treated seedlings were air-dried, then each was placed in a glass cylinder and two second-instar rice leaf bug larvae were released within the same glass cylinder. Following release of the insects, the tube was capped and held in an incubation chamber at 25° C. (16-hour period of light, 8-hour dark period). […] Three days after released, the numbers of live and dead insects were counted, and the mortality was calculated from the following formula. Mortality (%)=[number of dead insects/(number of live insects+number of dead insects)]×100

The test system of a further data set is cotton aphid. Nature of the data set: whole plant or invertebrate. The settings on record: Aphis gossypii, foliar. Format: in vivo. How it is done: as §1, with “Leaf discs 2.0 cm in diameter were cut from cucumber plants” for “Rice seedlings”, “pots, and these” for “pots”, “sprayed with” for “subjected to the foliar application of”, “leaf discs” for “seedlings”, “first-instar” for “second-instar”, “discs.” for “seedlings.”

For data set [5], the system named is small brown planthopper having a low susceptibility to insecticides. Nature of the data set: Small brown planthopper control test, pests having a low susceptibility to insecticides (soil drenching). Format: in vivo. The note with it: 0.01 mg/seedling soil drenching. How it is done: as §2, with “days after” for “days following”, “larvae having a low susceptibility to insecticides” for “larvae”, “The” for “The treated”, “and insects” for “and larvae”
The pests used in this test were insects that had been raised indoors for successive generations over a long period of time (susceptible line), and insects that had been raised indoors for successive generations after being collected in 2006 within Kumamoto Prefecture (field-collected line).

The mark [6] stands for this setting: read-out: Insecticidal effects (mortality), small brown planthopper second-instar larvae.
The mark [7] stands for this setting: read-out: Insecticidal effects (mortality), diamondback moth second-instar larvae.
The mark [8] stands for this setting: read-out: Insecticidal effects (mortality), western flower thrips first-instar larvae.
The mark [9] stands for this setting: read-out: Insecticidal effects (mortality), cotton aphid first-instar larvae.

The structures appear in SMILES notation. Like-named read-outs stand apart in the source and are kept apart here.

As to `CSC(=S)SCCN(C#N)Cc1ccc(Cl)nc1` [Compound 6, 2-[N-(6-chloro-3-pyridylmethyl)cyanamide] ethyl methylcarbonotrithioate], the “Microfilaricidal effect (motility rating)” value (from here on “Microfilaricidal effect”) in data set [1] was “B”.

As for `CCSC(=S)SCCN(C#N)Cc1ccc(Cl)nc1` [Compound 7], the “Microfilaricidal effect” value in [1] is “B”.

Consider `CCCSC(=S)SCCN(C#N)Cc1ccc(Cl)nc1` [Compound 8], for which, in [1], the “Microfilaricidal effect” value is “B”.

In the case of `O=C(N=c1ccccn1Cc1cnc(Cl)s1)C(F)(F)F` [Compound 213], the Mortality result in the data set on greenhouse whitefly is given as “at least 80%”.

On to `O=C(N=c1ccccn1Cc1cnc(Cl)c(F)c1)C(F)(F)F` [Compound 227, N-[1-((6-chloro-5-fluoropyridin-3-yl)methyl)pyridin-2(1H)-ylidene]-2,2,2-trifluoroacetamide], for which the mortality (usually the share of the test organisms that died) at 5 ppm with small brown planthopper [2] (setting [6]) worked out at 100%. Besides, in the data set with small brown planthopper [2] (in Oryza sativa, 72 h), the mortality at 100 ppm was ≥ 80%. In the data set with small brown planthopper [3], the mortality at 20 µg/seedling was ≥ 80%, the mortality at 0.5 mg/seedling came to 50%, the mortality at 2 mg/seedling was determined as 75% and the mortality at 20 mg/seedling amounted to 100%. Moreover, in the data set on common cutworm (100 ppm), the “Insecticidal effects (mortality), common cutworm third-instar larvae” value (“Insecticidal effects (mortality)” below) is listed as 56. Also, in the data set on common cutworm (500 ppm), the “Insecticidal effects (mortality)” value was 100. The mortality at 500 ppm with common cutworm (foliar, 72 h) was ≥ 80%. In the data set on small brown planthopper [4], the pest or weed control at 0.005 mg/pot turned out to be 75%, the pest or weed control at 0.01 mg/pot was determined as 100%, the pest or weed control at 0.05 mg/pot is 90% and the mortality at 0.05 mg/seedling is ≥ 80%. For the same compound, in the data set with small brown planthopper [4], the mortality at 0.005 mg/pot was 75%, the mortality at 0.01 mg/pot is 100% and the mortality at 0.05 mg/pot was 90%. Moreover, in the data set on diamondback moth (setting [7]), the mortality at 20 ppm was 100%, the mortality at 100 ppm amounted to 100% and the mortality at 500 ppm was 100%. In the data set with diamondback moth (in Brassica oleracea, 72 h), the mortality at 100 ppm was ≥ 80% and the mortality at 500 ppm was ≥ 80%. For the same compound, the mortality at 500 ppm in the data set on western flower thrips (72 h) is ≥ 80%. In the data set on western flower thrips (setting [8]), the mortality at 100 ppm was found to be 65% and the mortality at 500 ppm was 90%. The mortality at 50 ppm in the data set with rice leaf bug was ≥ 80%. Besides, in the data set with cotton aphid (setting [9]), the mortality at 1.25 ppm amounted to 95%, the mortality at 5 ppm turned out to be 100%, the mortality at 20 ppm stood at 100% and the mortality at 100 ppm was 100%. For the same compound, the mortality at 500 ppm in the data set on cotton aphid (setting [9]) is 100%. In addition, in the data set on cotton aphid (in Cucumis sativus, 72 h), the mortality at 20 ppm was ≥ 80%, the mortality at 100 ppm was ≥ 80% and the mortality at 500 ppm is ≥ 80%.

Consider `O=C(N=c1ccccn1Cc1ccc(Br)nc1)C(F)(F)F` [Compound 231, N-[1-((6-bromopyridin-3-yl)methyl)pyridin-2(1H)-ylidene]-2,2,2-trifluoroacetamide], for which the mortality at 100 ppm in the data set with small brown planthopper [2] (setting [6]) was 100%. In addition, in the data set with small brown planthopper [3], the mortality at 20 µg/seedling was ≥ 80%, the mortality at 0.5 mg/seedling was 25%, the mortality at 2 mg/seedling was 75% and the mortality at 20 mg/seedling came out at 100%. Moreover, the “Insecticidal effects (mortality)” value in the data set on common cutworm (100 ppm) is 0. The “Insecticidal effects (mortality)” value in the data set on common cutworm (500 ppm) came out at 0. Moreover, in the data set with small brown planthopper [4], the pest or weed control at 0.005 mg/pot stood at 70%, the pest or weed control at 0.01 mg/pot worked out at 100%, the pest or weed control at 0.05 mg/pot was found to be 100% and the mortality at 0.05 mg/seedling was ≥ 80%. Besides, in the data set on small brown planthopper [4], the mortality at 0.005 mg/pot came to 70%, the mortality at 0.01 mg/pot is 100% and the mortality at 0.05 mg/pot was determined as 100%. In the data set with diamondback moth (setting [7]), the mortality at 20 ppm stood at 100% and the mortality at 100 ppm is 100%. Also, in the data set on diamondback moth (in Brassica oleracea, 72 h), the mortality at 100 ppm is ≥ 80%. Further, the mortality at 500 ppm in the data set with western flower thrips (72 h) is ≥ 80%. Also, in the data set with western flower thrips (setting [8]), the mortality at 100 ppm was 55% and the mortality at 500 ppm was determined as 85%. Besides, in the data set on rice leaf bug, the mortality at 50 ppm is ≥ 80%. For the same compound, in the data set with cotton aphid (setting [9]), the mortality at 1.25 ppm came to 74%, the mortality at 5 ppm was 100% and the mortality at 20 ppm was determined as 100%. Moreover, the mortality at 20 ppm in the data set with cotton aphid (in Cucumis sativus, 72 h) is ≥ 80%.

As to `N#Cc1nn(-c2c(Cl)cc(C(F)(F)F)cc2Cl)c(N)c1[S+]([O-])C(F)(F)F` (stereo not shown) [fipronil], the Mortality in data set [5] (field-collected line (2006 Kumamoto Prefecture)) is on record as 70%; in data set [5] (susceptible line), 100%.

The values are drawn from patent US10085449B2, “N-[1-((6-chloropyridin-3-yl)methyl)pyridin-2(1H)-ylidene]-2,2,2- trifluoroacetamide for control of agricultural/horticultural pests” (priority 2010, dated 2018).
